From ChEMBL document CHEMBL1138436, “Biological activity and chemistry of taxoids from the Japanese yew, Taxus cuspidata” (J Nat Prod, 2004)

What was measured:
Assay type in all cases: functional
[1] = system: DU-145; experiment: Growth inhibition of human DU145 cells
[2] = system: SF-268; experiment: Growth inhibition of human SF268 cells
[3] = system: OVCAR-3; experiment: Growth inhibition of human OVCAR-3 cells
[4] = system: KM12; experiment: Growth inhibition of human KM12 cells
[5] = system: SK-OV-3; experiment: Growth inhibition of human SKOV3 cells
[6] = system: HCT-116; experiment: Growth inhibition of human HCT116 cells
[7] = system: MDA-MB-231; experiment: Growth inhibition of human MDA-MB-231 cells
[8] = system: OVCAR-4; experiment: Growth inhibition of human OVCAR4 cells
[9] = system: MKN-74; experiment: Growth inhibition of human MKN74 cells
[10] = system: MKN-45; experiment: Growth inhibition of human MKN45 cells
[11] = system: U-251; experiment: Growth inhibition of human U251 cells
[12] = system: LOX IMVI; experiment: Growth inhibition of human LOXIMVI cells
[13] = system: SF-539; experiment: Growth inhibition of human SF539 cells
[14] = Growth inhibition of human HBC5 cells
[15] = system: DMS-273; experiment: Growth inhibition of human DMS273 cells
[16] = system: MKN-28; experiment: Growth inhibition of human MKN28 cells
[17] = system: MKN-7; experiment: Growth inhibition of human MKN7 cells
[18] = system: PC-3; experiment: Growth inhibition of human PC3 cells
[19] = system: NCI-H522; experiment: Growth inhibition of human NCI-H522 cells
[20] = system: A549; experiment: Growth inhibition of human A549 cells
[21] = system: OVCAR-5; experiment: Growth inhibition of human OVCAR5 cells
[22] = system: ACHN; experiment: Growth inhibition of human ACHN cells
[23] = system: St-4; experiment: Growth inhibition of human St-4 cells
[24] = Growth inhibition of human MKN1 cells
[25] = system: HCT-15; experiment: Growth inhibition of human HCT15 cells
[26] = system: SF-295; experiment: Growth inhibition of human SF295 cells
[27] = system: HCC 2998; experiment: Growth inhibition of human HCC2998 cells
[28] = system: HT-29; experiment: Growth inhibition of human HT-29 cells
[29] = read-out: LC50 (the source's name)
[30] = read-out: pLC50 (the source's name) (converted)

Molecule `CC(=O)O[C@H]1C[C@H]2OC[C@@]2(OC(C)=O)[C@H]2[C@H](OC(=O)c3ccccc3)[C@]3(O)C[C@H](O)C(C)=C([C@@H](O)[C@H](O)[C@]12C)C3(C)C` [TAXUSPINE E] has a TGI [1] of over 100 µM, a GI50 ([1]; read-out: GI50) of 33 µM and a CC50 [1, 29] of over 100 µM. The GI50 ([1]; read-out: pGI50 (converted)) was 32.4 µM, the CC50 [1, 30] was 100 µM and the TGI [2] was over 100 µM. For the same molecule, the GI50 ([2]; read-out: GI50) was 74 µM, the CC50 [2, 29] was over 100 µM and the GI50 ([2]; read-out: pGI50 (converted)) was 74.1 µM. For the same molecule, the CC50 [2, 30] was 100 µM, the GI50 ([3]; read-out: GI50) was 21 µM and the CC50 [3, 29] was over 100 µM. It also gave a TGI ([3]; read-out: TGI) of 99 µM, a GI50 ([3]; read-out: pGI50 (converted)) of 20.4 µM and a CC50 [3, 30] of 100 µM. The TGI ([3]; read-out: pTGI (converted)) was 100 µM, the GI50 ([4]; read-out: GI50) was 42 µM and the CC50 [4, 29] was 100 µM. For the same molecule, the TGI ([4]; read-out: TGI) was over 100 µM, the GI50 ([4]; read-out: pGI50 (converted)) was 41.7 µM and the CC50 [4, 30] was 100 µM. It also gave a TGI ([4]; read-out: pTGI (converted)) of 100 µM, a GI50 ([5]; read-out: GI50) of 68 µM and a CC50 [5, 29] of over 100 µM. It also gave a TGI ([5]; read-out: TGI) of 100 µM, a GI50 ([5]; read-out: pGI50 (converted)) of 69.2 µM and a CC50 [5, 30] of 100 µM. The TGI ([5]; read-out: pTGI (converted)) was 100 µM, the TGI [6] was over 100 µM and the GI50 ([6]; read-out: GI50) was 30 µM. The CC50 [6, 29] was over 100 µM, the GI50 ([6]; read-out: pGI50 (converted)) was 30.2 µM and the CC50 [6, 30] was 100 µM. It also gave a GI50 ([7]; read-out: GI50) of 18 µM, a CC50 [7, 29] of over 100 µM and a GI50 ([7]; read-out: pGI50 (converted)) of 18.2 µM. The CC50 [7, 30] was 100 µM, the TGI ([7]; read-out: pTGI (converted)) was 100 µM and the GI50 ([8]; read-out: GI50) was 21 µM. The CC50 [8, 29] was over 100 µM, the TGI ([8]; read-out: TGI) was over 100 µM and the GI50 ([8]; read-out: pGI50 (converted)) was 21.4 µM. For the same molecule, the CC50 [8, 30] was 100 µM, the TGI ([8]; read-out: pTGI (converted)) was 100 µM and the GI50 ([9]; read-out: GI50) was 30 µM. The CC50 [9, 29] was over 100 µM, the TGI ([9]; read-out: TGI) was over 100 µM and the GI50 ([9]; read-out: pGI50 (converted)) was 30.2 µM. The CC50 [9, 30] was 100 µM, the TGI ([9]; read-out: pTGI (converted)) was 100 µM and the GI50 ([10]; read-out: GI50) was 27 µM. For the same molecule, the CC50 [10, 29] was over 100 µM, the TGI ([10]; read-out: TGI) was over 100 µM and the GI50 ([10]; read-out: pGI50 (converted)) was 26.9 µM. For the same molecule, the CC50 [10, 30] was 100 µM, the TGI ([10]; read-out: pTGI (converted)) was 100 µM and the TGI [11] was over 100 µM. For the same molecule, the GI50 ([11]; read-out: GI50) was 36 µM, the CC50 [11, 29] was over 100 µM and the GI50 ([11]; read-out: pGI50 (converted)) was 36.3 µM. The GI50 ([12]; read-out: GI50) was 35 µM, the CC50 [12, 29] was over 100 µM and the TGI ([12]; read-out: TGI) was over 100 µM. For the same molecule, the GI50 ([12]; read-out: pGI50 (converted)) was 34.7 µM, the TGI ([12]; read-out: pTGI (converted)) was 100 µM and the GI50 ([13]; read-out: GI50) was 45 µM. The CC50 [13, 29] was over 100 µM, the TGI ([13]; read-out: TGI) was over 100 µM and the GI50 ([13]; read-out: pGI50 (converted)) was 44.7 µM. The CC50 [13, 30] was 100 µM, the TGI ([13]; read-out: pTGI (converted)) was 100 µM and the GI50 ([14]; read-out: GI50) was 25 µM. It also gave a CC50 [14, 29] of over 100 µM, a TGI ([14]; read-out: TGI) of over 100 µM and a GI50 ([14]; read-out: pGI50 (converted)) of 25.1 µM. It also gave a TGI ([14]; read-out: pTGI (converted)) of 100 µM, a GI50 ([15]; read-out: GI50) of 22 µM and a CC50 [15, 29] of over 100 µM. For the same molecule, the TGI ([15]; read-out: TGI) was over 100 µM, the GI50 ([15]; read-out: pGI50 (converted)) was 22.4 µM and the TGI ([15]; read-out: pTGI (converted)) was 100 µM. It also gave a GI50 ([16]; read-out: GI50) of 31 µM, a CC50 [16, 29] of over 100 µM and a TGI ([16]; read-out: TGI) of over 100 µM. The GI50 ([16]; read-out: pGI50 (converted)) was 30.9 µM, the CC50 [16, 30] was 100 µM and the TGI ([16]; read-out: pTGI (converted)) was 100 µM. It also gave a TGI [17] of 93 µM, a GI50 ([17]; read-out: GI50) of 18 µM and a CC50 [17, 29] of over 100 µM. For the same molecule, the GI50 ([17]; read-out: pGI50 (converted)) was 18.2 µM, the GI50 ([18]; read-out: GI50) was 20 µM and the CC50 [18, 29] was over 100 µM. For the same molecule, the TGI ([18]; read-out: TGI) was over 100 µM, the GI50 ([18]; read-out: pGI50 (converted)) was 20 µM and the TGI ([18]; read-out: pTGI (converted)) was 100 µM. It also gave a GI50 ([19]; read-out: GI50) of 15 µM, a CC50 [19, 29] of over 100 µM and a TGI ([19]; read-out: TGI) of 49 µM. It also gave a GI50 ([19]; read-out: pGI50 (converted)) of 15.1 µM, a TGI ([19]; read-out: pTGI (converted)) of 49 µM and a GI50 ([20]; read-out: GI50) of 30 µM. For the same molecule, the CC50 [20, 29] was 100 µM, the TGI ([20]; read-out: TGI) was over 100 µM and the GI50 ([20]; read-out: pGI50 (converted)) was 30.2 µM. The CC50 [20, 30] was 100 µM, the TGI ([20]; read-out: pTGI (converted)) was 100 µM and the GI50 ([21]; read-out: GI50) was 48 µM. The CC50 [21, 29] was over 100 µM, the TGI ([21]; read-out: TGI) was over 100 µM and the GI50 ([21]; read-out: pGI50 (converted)) was 47.9 µM. For the same molecule, the CC50 [21, 30] was 100 µM, the TGI ([21]; read-out: pTGI (converted)) was 100 µM and the GI50 ([22]; read-out: GI50) was 28 µM. It also gave a CC50 [22, 29] of over 100 µM, a TGI ([22]; read-out: TGI) of over 100 µM and a GI50 ([22]; read-out: pGI50 (converted)) of 28.2 µM. It also gave a TGI ([22]; read-out: pTGI (converted)) of 100 µM, a GI50 ([23]; read-out: GI50) of 33 µM and a CC50 [23, 29] of over 100 µM. For the same molecule, the TGI ([23]; read-out: TGI) was over 100 µM, the GI50 ([23]; read-out: pGI50 (converted)) was 33.1 µM and the CC50 [23, 30] was 100 µM. It also gave a TGI ([23]; read-out: pTGI (converted)) of 100 µM, a GI50 ([24]; MKN-1, read-out: GI50) of 49 µM and a CC50 ([24]; MKN-1, read-out: LC50 (the source's name)) of over 100 µM. The TGI ([24]; MKN-1, read-out: TGI) was over 100 µM, the GI50 ([24]; MKN-1, read-out: pGI50 (converted)) was 49 µM and the CC50 ([24]; MKN-1, read-out: pLC50 (the source's name) (converted)) was 100 µM. It also gave a TGI ([24]; MKN-1, read-out: pTGI (converted)) of 100 µM, a GI50 ([25]; read-out: GI50) of 32 µM and a CC50 [25, 29] of over 100 µM. The TGI ([25]; read-out: TGI) was over 100 µM, the GI50 ([25]; read-out: pGI50 (converted)) was 32.4 µM and the CC50 [25, 30] was 100 µM. For the same molecule, the TGI ([25]; read-out: pTGI (converted)) was 100 µM, the GI50 ([26]; read-out: GI50) was 21 µM and the CC50 [26, 29] was over 100 µM. It also gave a TGI ([26]; read-out: TGI) of over 100 µM, a GI50 ([26]; read-out: pGI50 (converted)) of 21.4 µM and a TGI ([26]; read-out: pTGI (converted)) of 100 µM. For the same molecule, the TGI [27] was over 100 µM, the GI50 ([27]; read-out: GI50) was 27 µM and the CC50 [27, 29] was over 100 µM. For the same molecule, the GI50 ([27]; read-out: pGI50 (converted)) was 27.5 µM, the GI50 ([28]; read-out: GI50) was 28 µM and the CC50 [28, 29] was over 100 µM. The TGI ([28]; read-out: TGI) was over 100 µM, the GI50 ([28]; read-out: pGI50 (converted)) was 27.5 µM and the TGI ([28]; read-out: pTGI (converted)) was 100 µM.
